“And” between values parts separate entries of the source, which are not always exact repeats. Equal values may be shown once. Read-outs that look alike come from different tables or passages of the source.
Key:
[1] = system: human breast carcinoma cells (MDA-BA-231); experiment: Human breast cancer cells in nude mice; format: in vivo, Balb/c nude mice; settings: 1.2 mg/kg i.p. twice a week, vs control (FIG. 6)
Method: In order to test the in vivo efficacy of the inhibitor for inhibiting tumor growth of human breast carcinoma cells (MDA-BA-231), 6×10^6 cells were injected subcutaneously into the right flank of Balb/c nude mice (4-6 weeks old). The tumor cells were preincubated with the synthetic uPA inhibitor prior to inoculation. After 24 h, the mice were treated twice a week intraperitoneally with a dose of 1.2 mg/kg body weight as described under A). The tumor size was determined weekly by measuring the two largest diameters.

[2] = system: BN-472 rat mammary carcinoma; experiment: BN-472 rat mammary carcinoma model, single agent and combination with cytotoxics (Example 11)
Method: WX-UK1 was dissolved in 5% w/v of D-mannitol to the appropriate dosage and administered once daily or twice weekly either subcutaneously (s.c.) or intraperitonally (i.p.).
Epirubicin (0.75-3 mg/kg body wight), paclitaxel (5-7.5 mg/kg) or 5-FU (20 and 40 mg/kg) was given once weekly by i.v. injection into the external jugular vein.
Control rats received the vehicle 5% w/v of D-mannitol once daily s.c.
A donor rat bearing a tumor of 20×20 mm was sacrificed, the tumor harvested ant the cortex part was sliced into cubes of approximately 10 mm^3 and the transplated orthotopically under the mammary fad pads of female Brown Norway rats.
Treatment was started three or six days (5-FU experiment) after tumor inoculation. Each treatment group consisted of 15 to 21 rats.
Tumor load is plotted as the average±standard error of the mean (SEM).
Tumor, organ weights as well as lung foci counts are presented in Box-Whisker graphs. […] Whiskers extend to the extreme lower 5th and upper 95th percentiles of values. Dots represent individual data.
P-values represent significance levels of pairwise comparisons of treatment groups versus vehicle control. For combination therapy experiments the P-values for the comparison of a cytostatic mono-therapy versus the combination therapy is given.

[3] = Biodistribution of the inhibitor in rats (HPLC of tissue extracts); format: in vivo, rat; settings: for concentration in tracheal lymph nodes: two independent experiments, hydrochloride
Method: The biodistribution of the inhibitor was determined by two independent experiments in tissue extracts of rats which had been treated once a day with 1 mg/kg i.p. of inhibitor i.p. over a period of 5 or 10 days. For the lysis, in each case 100 mg of tissue were mechanically comminuted and mixed with 200 μl of 1% Triton X-100 in physiological NaCl solution. After adding 400 μl of ethanol, the mixture was sonicated for 1 min. The tissue extract was centrifuged at 12,000×g for 15 min. For prepurification, the supernatant was applied to a C18 Silica Reversed Phase column (Sep-Pak® cartridge C18, 1 ml Water, Eschborn, Germany), equilibrated with 1 ml of methanol and 1 ml of water, washed successively with 2×1 ml H2O, 1 ml 10% methanol, 1 ml H2O, 1 ml 5% acetonitrile, 0.04% perchloric acid and 1 ml H2O and eluted with 500 μl of 75% acetonitrile, 0.04% perchloric acid. HPLC analysis was carried out on a reversed phase C18 silica column with a 5-55% strength acetonitrile gradient containing 0.04% perchloric acid.

Plasma kallikrein = Plasma kallikrein (Homo sapiens, UniProt P03952); experiment: In vitro inhibition of serine proteases: plasma kallikrein; format: biochemical
Method: (§1) To determine the inhibitory activity, 200 μl of Tris buffer (0.05 mol/l, containing the inhibitor, 0.154 mol/l NaCl, 5% ethanol pH 8.0), 25 μl of substrate (Pefachrome UK or Bz-βAla-Gly-Arg-pNA in H2O; Pentapharm Ltd., Basle, Switzerland) and 50 μl of sc-urokinase (Ribosepharm GmbH, Haan, Germany) were incubated at 25° C. After 3 min the reaction was stopped by adding 25 μl of acetic acid (50%), and the absorption at 405 nm was determined by means of a Microplate Reader (MR 5000, Dynatech, Denkendorf, Germany). Ki values were determined according to Dixon by linear regression using a computer program. The Ki values are the mean values of at least three determinations with a standard deviation of less than 25%.
The inhibition activities of the enzymes used were determined according to the principle described in Example 3.

Urokinase (sc-urokinase) = biological target: T1, Urokinase (sc-urokinase) (Homo sapiens, UniProt P00749); experiment: In vitro inhibition of urokinase (chromogenic substrate, Dixon Ki); format: biochemical
T1 construct: purchased Ribosepharm GmbH, Haan, Germany
Method: as §1

[4] = system: human ovarian carcinoma cells OV-MZ-6; experiment: Cytotoxicity determination (tetrazolium salt conversion, Promega); format: cell-based
Description: To determine cell proliferation/cytotoxicity a commercially available test was used (Promega) which is based on the cellular conversion of a tetrazolium salt. The colored product resulting from this reaction can be quantified by means of an ELISA spectrometer (ICN flow). The synthetic inhibitor (open circles) had no effect on the growth of the human ovarian carcinoma cells OV-MZ-6 (FIG. 1) when compared with the solvent alone (closed circles). Thus, the inventive uPA inhibitor is not cytotoxic in pharmacologically effective concentrations up to 40 μM.

[5] = system: human breast carcinoma cells; experiment: Fibrin matrix degradation assay (D dimer ELISA); format: cell-based; settings: different concentrations, 4 h (FIG. 2)
Method: To study the potential of tumor cells for breaking down an extracellular matrix, a fibrin matrix degradation assay was developed and used. A greater proteolytic activity of the tumor cells leads to a higher concentration of fibrin degradation products in the matrix supernatant. The matrix degradation capacity corresponds to the concentration of fibrin degradation products which are determined by means of ELISA (D dimer).
The fibrin gels were prepared in 24-well culture dishes from […] of fibrinogen (50 mg/ml) in PBS (pH 7.4), by 50 μl of thrombin (10 U/ml) and 50 μl of CaCl2 (150 mM) per well after incubation at 37° C. for 30 minutes. 2×10^5 breast carcinoma cells were seeded on said fibrin matrix in 1 ml of DMEM culture medium plus 10% fetal calf serum and 2 μg of Glu-plasminogen, and incubated for 4 h. The supernatant was then centrifuged, in order to remove the cells, and the fibrin degradation products were quantified by means of ELISA.

[6] = concluded from plasma vs tissue concentrations

Plasma kallikrein, sequence (P03952 20-638, species assumed): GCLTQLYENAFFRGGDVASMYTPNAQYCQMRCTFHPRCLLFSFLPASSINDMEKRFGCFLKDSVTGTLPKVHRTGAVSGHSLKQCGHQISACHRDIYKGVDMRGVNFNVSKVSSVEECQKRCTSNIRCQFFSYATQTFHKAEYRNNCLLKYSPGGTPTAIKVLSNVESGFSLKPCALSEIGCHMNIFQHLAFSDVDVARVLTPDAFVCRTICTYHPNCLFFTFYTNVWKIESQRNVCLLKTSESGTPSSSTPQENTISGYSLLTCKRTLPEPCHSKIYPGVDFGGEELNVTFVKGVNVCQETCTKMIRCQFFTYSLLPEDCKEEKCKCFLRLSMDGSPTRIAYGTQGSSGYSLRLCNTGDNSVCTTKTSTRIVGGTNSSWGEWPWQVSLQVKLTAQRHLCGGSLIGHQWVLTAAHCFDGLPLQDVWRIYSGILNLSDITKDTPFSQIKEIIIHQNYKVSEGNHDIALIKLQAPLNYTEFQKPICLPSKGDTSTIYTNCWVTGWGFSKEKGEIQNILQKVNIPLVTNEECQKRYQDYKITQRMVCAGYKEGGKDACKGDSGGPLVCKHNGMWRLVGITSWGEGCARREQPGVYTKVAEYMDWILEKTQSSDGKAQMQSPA

CCOC(=O)N1CCN(C(=O)[C@H](Cc2cccc(C(=N)N)c2)NS(=O)(=O)c2c(C(C)C)cc(C(C)C)cc2C(C)C)CC1.Cl [uPA inhibitor, Nα-2,4,6-Triisopropylphenylsulfonyl-(L)-3-amidinophenylalanine 4-ethoxycarbonylpiperazide hydrochloride]
tumor volume increase [1]: significantly more slowly | anti-metastatic effects in combination therapies (lymph nodes weight, macroscopic lung foci number) ([2]; WX-UK1 and the cytostatic agents): additional anti-metastatic effects | anti-metastatic effects in combination ([2]; combined with either epirubicin and in particular with 5-FU): statistically significant additive anti-metastatic effects | number of macroscopically detectable lung foci ([2]; compared with 5-FU): equally effective | number of macroscopically detectable lung foci ([2]; compared with epirubicin or paclitaxel): more effectively reduced | anti-tumor effects (tumor size development, final tumor weight) ([2]; daily administration): Dose-dependent anti-tumor effects | metastatic endpoints in combination ([2]; plus epirubicin, paclitaxel or 5-FU): tended to provide additive benefits | reducing lymphogenic spread as determined by lymph-node weight ([2]; single agent, compared with epirubicin, paclitaxel or 5-FU alone): more or similarly active | Content Bile ([3]; 1 mg/kg i.p. 5 days): 1.96 µg/mL | Content Brain ([3]; 1 mg/kg i.p. 5 days): <0.5 µg/g | Content Fat/kidney ([3]; 1 mg/kg i.p. 5 days): 0.82 µg/g | Content Heart ([3]; 1 mg/kg i.p. 5 days): <0.5 µg/g | Content Kidney ([3]; 1 mg/kg i.p. 5 days): 2.67 µg/g | Content Liver ([3]; 1 mg/kg i.p. 5 days): 2.85 µg/g | Content Lung ([3]; 1 mg/kg i.p. 5 days): 3.70 µg/g | Content Lymph nodes/trachea ([3]; 1 mg/kg i.p. 5 days): 7.45 µg/g | Content Muscle ([3]; 1 mg/kg i.p. 5 days): 0.74 µg/g | Content Plasma ([3]; 1 mg/kg i.p. 5 days): 0.008 µg/mL | Content Spleen ([3]; 1 mg/kg i.p. 5 days): 2.02 µg/g | Content lymph nodes/axillary ([3]; 1 mg/kg i.p. 5 days): 1.97 µg/g | Content lymph nodes/knee ([3]; 1 mg/kg i.p. 5 days): 7.83 µg/g | Content Bile ([3]; 1 mg/kg i.p. 10 days): 1.75 µg/mL | Content Brain ([3]; 1 mg/kg i.p. 10 days): <0.5 µg/g | Content Fat/kidney ([3]; 1 mg/kg i.p. 10 days): 1.0 µg/g | Content Heart ([3]; 1 mg/kg i.p. 10 days): 1.09 µg/g | Content Kidney ([3]; 1 mg/kg i.p. 10 days): 2.48 µg/g | Content Liver ([3]; 1 mg/kg i.p. 10 days): 2.08 µg/g | Content Lung ([3]; 1 mg/kg i.p. 10 days): 1.81 µg/g | Content Lymph nodes/trachea ([3]; 1 mg/kg i.p. 10 days): 16.38 µg/g | Content Muscle ([3]; 1 mg/kg i.p. 10 days): <0.5 µg/g | Content Plasma ([3]; 1 mg/kg i.p. 10 days): 0.035 µg/mL | Content Spleen ([3]; 1 mg/kg i.p. 10 days): 2.48 µg/g | Content lymph nodes/axillary ([3]; 1 mg/kg i.p. 10 days): 2.74 µg/g | Content lymph nodes/knee ([3]; 1 mg/kg i.p. 10 days): 3.8 µg/g | plasma concentrations relative to the mean tissue concentrations ([3]; 24 h after the last i.p. administration): one to two orders of magnitude below | concentration in tracheal lymph nodes ([3]; after 5 days of administration): 5.3 µg/g and 7.5 µg/g | concentration in tracheal lymph nodes ([3]; after 10 days of administration): 21.6 µg/g and 16.4 µg/g | plasma protein binding [3, 6]: low plasma protein binding | tissue affinity [3, 6]: high tissue affinity | accumulation in lymph nodes ([3]; rat, in vivo): noticeable accumulation | Ki (Plasma kallikrein): 7.2 µM | Ki (Urokinase (sc-urokinase); in vitro inhibition of urokinase, 25° C, pH 8.0, 5% ethanol, read-out: Ki): 0.41 µM | Ki (Urokinase (sc-urokinase); read-out: Ki Urokinase): 0.41 µM | effect on the growth of OV-MZ-6 cells ([4]; compared with the solvent alone (FIG. 1)): no effect | cytotoxicity ([4]; concentrations up to 40 μM): not cytotoxic | inhibition of fibrin matrix degradation by breast carcinoma cells [5]: significant inhibition

Source: patent US7342018B2, “Urokinase inhibitors and uses thereof” (Wilex AG, priority 1998, dated 2008)
